Results as given in US10760110B2, “Antibiotic testing and screening system” (priority 2017, dated 2020).
≈ marks a conversion by molar mass, not a printed value. Like-named read-outs stand apart in the source and are kept apart here.

What was measured:
[1] = test system: K. pneumoniae NVT1001 and its ΔompK35/36 and/or ΔramR mutants; test: Etest MIC, OmpK35/36 loss and AcrAB-TolC overexpression (ΔramR) strains (Table 6); format: cell-based, Klebsiella pneumoniae; settings: Klebsiella pneumoniae
Outline: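 MICs were read by Etest strip following the manufacturer's instructions, and values falling between standard two-fold dilutions were rounded up to the next two-fold step. Ceftazidime and cefotaxime were also tested by CLSI broth microdilution and interpreted against CLSI 2017 breakpoints; cephalothin used CLSI 2015 and moxifloxacin EUCAST 2017.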

[2] = test system: K. pneumoniae NVT1001 ΔramRΔompK35/36 mutant and its revertants; test: Etest MIC, ΔramRΔompK35/36 mutant and its revertants (Table 7); format: cell-based; settings: Klebsiella pneumoniae
[3] = test system: K. pneumoniae NVT1001 strains with carbapenemase plasmids; test: Etest MIC of β-lactams, OmpK35/36 loss, ΔramR and/or carbapenemase (Table 9); format: cell-based, Klebsiella pneumoniae; settings: for MIC: Klebsiella pneumoniae
Outline: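 Cloned resistance genes in pACYC177 or pACYC184 were electroporated into K. pneumoniae NVT1001. MICs were determined by Etest and rounded up to the next two-fold value. Ceftazidime and cefotaxime against the blaOXA-48 construct were also tested by CLSI broth microdilution, with breakpoints from CLSI 2017 (cephalothin CLSI 2015, moxifloxacin EUCAST 2017).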

Question: `CO[C@@]1(NC(=O)Cc2cccs2)C(=O)N2C(C(=O)O)=C(COC(N)=O)CS[C@@H]21` [Cefoxitin] was tested. Which MIC ([1]; WT, NVT1001, read-out: MIC) did it give?
Answer: 4 µg/mL (≈ 9.36 µM)

Question: What about the MIC ([1]; Δ35, ΔompK35 mutant) of the same compound?
Answer: 4 µg/mL (≈ 9.36 µM)

Question: What about the MIC ([1]; Δ35/36, ΔompK35/36 mutant) of the same compound?
Answer: 128 µg/mL (≈ 299 µM)

Question: And the MIC ([1]; Δ36, ΔompK36 mutant)?
Answer: 16 µg/mL (≈ 37.4 µM)

Question: And the MIC ([1]; ΔramR mutant)?
Answer: 64 µg/mL (≈ 150 µM)

Question: What about the MIC ([1]; ΔramRΔ35, ΔramRΔompK35 mutant) of the same compound?
Answer: 64 µg/mL (≈ 150 µM)

Question: What about the MIC ([1]; ΔramRΔ35/36, ΔramRΔompK35/36 mutant) of the same compound?
Answer: > 256 µg/mL

Question: And the MIC ([1]; ΔramRΔ36, ΔramRΔompK36 mutant)?
Answer: > 256 µg/mL

Question: What about the MIC ([2]; ΔramRΔompK35/36::ompK35/36 revertant) of the same compound?
Answer: 64 µg/mL

Question: What about the MIC ([2]; ΔramRΔompK35/36::ompK35 revertant) of the same compound?
Answer: > 256 µg/mL

Question: And the MIC ([2]; ΔramRΔompK35/36::ompK36 revertant)?
Answer: 64 µg/mL

Question: And the MIC ([2]; ΔramRΔompK35/36::ramR revertant)?
Answer: 64 µg/mL

Question: What about the MIC ([2]; ΔramRΔompK35/36::ramR::ompK35/36 revertant) of the same compound?
Answer: 4 µg/mL

Question: What about the MIC ([2]; ΔramRΔompK35/36::ramR::ompK35 revertant) of the same compound?
Answer: 16 µg/mL

Question: What about the MIC ([2]; ΔramRΔompK35/36::ramR::ompK36 revertant) of the same compound?
Answer: 8 µg/mL

Question: And the MIC ([2]; ΔramRΔompK35/36 mutant)?
Answer: > 256 µg/mL

Question: What about the MIC ([3]; IMP-8 on pACYC177, WT (NVT1001), read-out: MIC) of the same compound?
Answer: > 256 µg/mL

Question: And the MIC ([3]; IMP-8 on pACYC177, Δ35 (ΔompK35 mutant))?
Answer: > 256 µg/mL

Question: And the MIC ([3]; IMP-8 on pACYC177, Δ35/36 (ΔompK35/36 mutant))?
Answer: > 256 µg/mL

Question: And the MIC ([3]; IMP-8 on pACYC177, Δ36 (ΔompK36 mutant))?
Answer: > 256 µg/mL

Question: And the MIC ([3]; IMP-8 on pACYC177, ΔramR mutant)?
Answer: > 256 µg/mL

Question: What about the MIC ([3]; IMP-8 on pACYC177, ΔramRΔ35 (ΔramRΔompK35 mutant)) of the same compound?
Answer: > 256 µg/mL

Question: What about the MIC ([3]; IMP-8 on pACYC177, ΔramRΔ35/36 (ΔramRΔompK35/36 mutant)) of the same compound?
Answer: > 256 µg/mL

Question: And the MIC ([3]; IMP-8 on pACYC177, ΔramRΔ36 (ΔramRΔompK36 mutant))?
Answer: > 256 µg/mL

Question: And the MIC ([3]; KPC-2 on pACYC177, WT (NVT1001), read-out: MIC)?
Answer: 16 µg/mL

Question: And the MIC ([3]; KPC-2 on pACYC177, Δ35 (ΔompK35 mutant))?
Answer: 32 µg/mL

Question: What about the MIC ([3]; KPC-2 on pACYC177, Δ35/36 (ΔompK35/36 mutant)) of the same compound?
Answer: > 256 µg/mL

Question: What about the MIC ([3]; KPC-2 on pACYC177, Δ36 (ΔompK36 mutant)) of the same compound?
Answer: 64 µg/mL

Question: And the MIC ([3]; KPC-2 on pACYC177, ΔramR mutant)?
Answer: 128 µg/mL

Question: What about the MIC ([3]; KPC-2 on pACYC177, ΔramRΔ35 (ΔramRΔompK35 mutant)) of the same compound?
Answer: 128 µg/mL

Question: And the MIC ([3]; KPC-2 on pACYC177, ΔramRΔ35/36 (ΔramRΔompK35/36 mutant))?
Answer: > 256 µg/mL

Question: And the MIC ([3]; KPC-2 on pACYC177, ΔramRΔ36 (ΔramRΔompK36 mutant))?
Answer: > 256 µg/mL

Question: And the MIC ([3]; KPC-3 on pACYC177, WT (NVT1001), read-out: MIC)?
Answer: 16 µg/mL

Question: What about the MIC ([3]; KPC-3 on pACYC177, Δ35 (ΔompK35 mutant)) of the same compound?
Answer: 32 µg/mL

Question: And the MIC ([3]; KPC-3 on pACYC177, Δ35/36 (ΔompK35/36 mutant))?
Answer: > 256 µg/mL

Question: And the MIC ([3]; KPC-3 on pACYC177, Δ36 (ΔompK36 mutant))?
Answer: 64 µg/mL

Question: What about the MIC ([3]; KPC-3 on pACYC177, ΔramR mutant) of the same compound?
Answer: 128 µg/mL

Question: And the MIC ([3]; KPC-3 on pACYC177, ΔramRΔ35 (ΔramRΔompK35 mutant))?
Answer: 128 µg/mL

Question: What about the MIC ([3]; KPC-3 on pACYC177, ΔramRΔ35/36 (ΔramRΔompK35/36 mutant)) of the same compound?
Answer: > 256 µg/mL

Question: And the MIC ([3]; KPC-3 on pACYC177, ΔramRΔ36 (ΔramRΔompK36 mutant))?
Answer: > 256 µg/mL

Question: What about the MIC ([3]; NDM-1 on pACYC177, WT (NVT1001), read-out: MIC) of the same compound?
Answer: > 256 µg/mL

Question: What about the MIC ([3]; NDM-1 on pACYC177, Δ35 (ΔompK35 mutant)) of the same compound?
Answer: > 256 µg/mL

Question: What about the MIC ([3]; NDM-1 on pACYC177, Δ35/36 (ΔompK35/36 mutant)) of the same compound?
Answer: > 256 µg/mL

Question: And the MIC ([3]; NDM-1 on pACYC177, Δ36 (ΔompK36 mutant))?
Answer: > 256 µg/mL

Question: And the MIC ([3]; NDM-1 on pACYC177, ΔramR mutant)?
Answer: > 256 µg/mL

Question: And the MIC ([3]; NDM-1 on pACYC177, ΔramRΔ35 (ΔramRΔompK35 mutant))?
Answer: > 256 µg/mL

Question: And the MIC ([3]; NDM-1 on pACYC177, ΔramRΔ35/36 (ΔramRΔompK35/36 mutant))?
Answer: > 256 µg/mL

Question: What about the MIC ([3]; NDM-1 on pACYC177, ΔramRΔ36 (ΔramRΔompK36 mutant)) of the same compound?
Answer: > 256 µg/mL

Question: And the MIC ([3]; OXA-48 on pACYC177, WT (NVT1001), read-out: MIC)?
Answer: 4 µg/mL

Question: And the MIC ([3]; OXA-48 on pACYC177, Δ35 (ΔompK35 mutant))?
Answer: 8 µg/mL

Question: And the MIC ([3]; OXA-48 on pACYC177, Δ35/36 (ΔompK35/36 mutant))?
Answer: 128 µg/mL

Question: And the MIC ([3]; OXA-48 on pACYC177, Δ36 (ΔompK36 mutant))?
Answer: 16 µg/mL

Question: What about the MIC ([3]; OXA-48 on pACYC177, ΔramR mutant) of the same compound?
Answer: 128 µg/mL

Question: What about the MIC ([3]; OXA-48 on pACYC177, ΔramRΔ35 (ΔramRΔompK35 mutant)) of the same compound?
Answer: 64 µg/mL

Question: What about the MIC ([3]; OXA-48 on pACYC177, ΔramRΔ35/36 (ΔramRΔompK35/36 mutant)) of the same compound?
Answer: > 256 µg/mL

Question: What about the MIC ([3]; OXA-48 on pACYC177, ΔramRΔ36 (ΔramRΔompK36 mutant)) of the same compound?
Answer: > 256 µg/mL

Question: What about the MIC ([3]; VIM-1 on pACYC177, WT (NVT1001), read-out: MIC) of the same compound?
Answer: > 256 µg/mL

Question: What about the MIC ([3]; VIM-1 on pACYC177, Δ35 (ΔompK35 mutant)) of the same compound?
Answer: > 256 µg/mL

Question: What about the MIC ([3]; VIM-1 on pACYC177, Δ35/36 (ΔompK35/36 mutant)) of the same compound?
Answer: > 256 µg/mL

Question: And the MIC ([3]; VIM-1 on pACYC177, Δ36 (ΔompK36 mutant))?
Answer: > 256 µg/mL

Question: What about the MIC ([3]; VIM-1 on pACYC177, ΔramR mutant) of the same compound?
Answer: > 256 µg/mL

Question: What about the MIC ([3]; VIM-1 on pACYC177, ΔramRΔ35 (ΔramRΔompK35 mutant)) of the same compound?
Answer: > 256 µg/mL

Question: And the MIC ([3]; VIM-1 on pACYC177, ΔramRΔ35/36 (ΔramRΔompK35/36 mutant))?
Answer: > 256 µg/mL

Question: And the MIC ([3]; VIM-1 on pACYC177, ΔramRΔ36 (ΔramRΔompK36 mutant))?
Answer: > 256 µg/mL

Question: What about the MIC ([3]; no supplemental plasmid, WT (NVT1001), read-out: MIC) of the same compound?
Answer: 4 µg/mL

Question: And the MIC ([3]; no supplemental plasmid, Δ35 (ΔompK35 mutant))?
Answer: 4 µg/mL

Question: And the MIC ([3]; no supplemental plasmid, Δ35/36 (ΔompK35/36 mutant))?
Answer: 128 µg/mL

Question: What about the MIC ([3]; no supplemental plasmid, Δ36 (ΔompK36 mutant)) of the same compound?
Answer: 16 µg/mL

Question: What about the MIC ([3]; no supplemental plasmid, ΔramR mutant) of the same compound?
Answer: 64 µg/mL

Question: What about the MIC ([3]; no supplemental plasmid, ΔramRΔ35 (ΔramRΔompK35 mutant)) of the same compound?
Answer: 64 µg/mL

Question: What about the MIC ([3]; no supplemental plasmid, ΔramRΔ35/36 (ΔramRΔompK35/36 mutant)) of the same compound?
Answer: > 256 µg/mL

Question: What about the MIC ([3]; no supplemental plasmid, ΔramRΔ36 (ΔramRΔompK36 mutant)) of the same compound?
Answer: > 256 µg/mL

Question: And the resistance category ([3]; production of KPC-2 or KPC-3 alone)?
Answer: intermediate resistance
